The source of these data is PMC4810358, “Applicability of the Rayleigh equation for enantioselective metabolism of chiral xenobiotics by microsomes, hepatocytes and in-vivo retention in rabbit tissues” (Scientific Reports, 2016).

Series [1] can be described thus: enantioselective metabolism of diclofop-methyl in fish liver microsomes (Ma et al.). It is filed as in vitro ADME, loach (Misgurnus anguillicaudatus). Particulars: reconstructed from data of Fig. 3A in ref 50; R^2 = 0.94. As to the method:
(§1) In addition to the microsome studies, the Rayleigh equation was fitted to reported studies on biodegradation of chiral compounds using liver microsomes and hepatocytes for which there was sufficient data available. We focused on studies published on years 2011–2015 that reported on first order kinetics and/or provided concentration - time profiles of the individual enantiomers after incubation of the racemate with the metabolizer, i.e. systems analyzed by approach II in the introduction.

A short description of series [2]: enantioselective degradation of paclobutrazol in rat liver microsomes (Wu et al.). It is filed as in vitro ADME. Particulars: reconstructed from data of Fig. 3A in ref 19; R^2 0.97. On the procedure:
as §1

The nature of series [3]: in vivo stereoselective metabolism of doxazosin, plasma concentration-time profiles (Kong et al.). Particulars: male Sprague–Dawley rats, from Fig. 3 in ref 25, R^2 = 0.92. From the text: For example, Sun et al.[26] have reviewed the enantioselective behavior of the fungicide myclobutanil enantiomers in variant rabbit tissues following intravenous administration of the racemic fungicide. Using the plasma concentration-time curves of the two enantiomers (presented in Fig. 1A in ref. [26]) we obtained the enantiomeric enrichment factor of −28 ± 5 (R^2 = 0.97). Analysis of the distribution of myclobutanil in various tissues, presented in Fig. 3 in ref. [26], obtained the enantiomeric enrichment factors of −33 ± 16 (R^2 = 0.92) for the liver, −20 ± 6 (R^2 = 0.97) for the brain, −32 ± 16 (R^2 = 0.89) for the kidney and −21 ± 6 (R^2 = 0.97) for the muscle. […] This quantitative ranking is obscured by the large number of time trace data points in the original presentation. Another example can be presented by the study of Kong et al.[25] reporting on the stereoselective metabolism of the alpha blocker doxazosin (DOX) in vivo in male Sprague–Dawley rats.

The nature of series [4]: metabolism of hexaconazole in male Sprague–Dawley rat liver microsomes (Shen et al.). It is filed as in vitro ADME. The settings on record: reconstructed from data of Fig. 3A in ref 20; R^2 = 0.99. On the procedure:
as §1

A short description of series [5]: enantioselective metabolism in rat hepatocytes (reported studies). It is filed as in vitro ADME. Particulars: hexaconazole, reconstructed from Fig. 3a in ref 24; R^2 = 0.99. On the procedure:
as §1
Wang et al.[24] studied the enantioselective metabolism of the fungicide hexaconazole as well, they used male Sprague–Dawley rat hepatocytes. […] In a second test case, Wang et al.[52] studied the degradation of the fungicide myclobutanil in hepatocytes from male Sprague–Dawley rats.

Take `COC(=O)C(C)Oc1ccc(Oc2ccc(Cl)cc2Cl)cc1` (centres unmarked) [diclofop-methyl]: in series [1], the enantiomeric enrichment factor is given as −142 ± 40%.
`CC(C)(C)[C@@H](O)[C@@H](Cc1ccc(Cl)cc1)n1cncn1` (racemic) [(2RS, 3RS)-paclobutrazol]: the enantiomeric enrichment factor in series [2] is −66 ± 14%.
In the case of `COc1cc2nc(N3CCN(C(=O)C4COc5ccccc5O4)CC3)nc(N)c2cc1OC` (centres unmarked) [DOX, doxazosin], the enantiomeric enrichment factor in series [3] is reported as −45 ± 13.
As for `CCCCC(O)(Cn1cncn1)c1ccc(Cl)cc1Cl` (centres unmarked) [hexaconazole], the enantiomeric enrichment factor in series [4] is given as −37 ± 2%; in series [5], −184 ± 6%.
